Results on twelve compounds are retold here after patent US20250034210A1, “DLL3 TARGETING PEPTIDES AND CONSTRUCTS THEREOF” (MARIANA ONCOLOGY INC., priority 2023, published 2025).

Each structure is given as a SMILES string. *1 amine or outer side, *2 acyl side, *3 side chain or, on linkers, in order; H or OH if unused. Where a SMILES comes first, the peptide text is derived from it. Bridges are numbered along the chain shown (N, C = ends). [ ]: non-standard residue; d: D form. The star is where a group is joined. ξ: configuration not given here. X2 = O=C(O)CN1CCN(CC(=O)O)CCN(CC(=O)NCCCOCCOCCOCCCN*)CCN(CC(=O)O)CC1; DOTA = O=C(O)CN1CCN(CC(=O)O)CCN(CC(=O)*)CCN(CC(=O)O)CC1; Trp(5-F) = N[C@@H](Cc1c[nH]c2ccc(F)cc12)C(=O)O; PEG8 = NCCOCCOCCOCCOCCOCCOCCOCCOCCC(=O)O; X1 = O=C(C[C@H]1CC[C@H](N[*:1])CC1)[*:2]; 1Nal = N[C@@H](Cc1cccc2ccccc12)C(=O)O; 2Nal = N[C@@H](Cc1ccc2ccccc2c1)C(=O)O; Suc = O=C(CCC(=O)[*:2])[*:1]; ξIle = CC[C@H](C)C(N)C(=O)O; Ahx = NCCCCCC(=O)O; ξP = O=C(O)C1CCCN1; Sar = CNCC(=O)O

This test addresses T1, human DLL3 (Homo sapiens, UniProt Q9NYJ7).
T1 construct: biotin (biotinylated)
T1 sequence (Q9NYJ7 27-618): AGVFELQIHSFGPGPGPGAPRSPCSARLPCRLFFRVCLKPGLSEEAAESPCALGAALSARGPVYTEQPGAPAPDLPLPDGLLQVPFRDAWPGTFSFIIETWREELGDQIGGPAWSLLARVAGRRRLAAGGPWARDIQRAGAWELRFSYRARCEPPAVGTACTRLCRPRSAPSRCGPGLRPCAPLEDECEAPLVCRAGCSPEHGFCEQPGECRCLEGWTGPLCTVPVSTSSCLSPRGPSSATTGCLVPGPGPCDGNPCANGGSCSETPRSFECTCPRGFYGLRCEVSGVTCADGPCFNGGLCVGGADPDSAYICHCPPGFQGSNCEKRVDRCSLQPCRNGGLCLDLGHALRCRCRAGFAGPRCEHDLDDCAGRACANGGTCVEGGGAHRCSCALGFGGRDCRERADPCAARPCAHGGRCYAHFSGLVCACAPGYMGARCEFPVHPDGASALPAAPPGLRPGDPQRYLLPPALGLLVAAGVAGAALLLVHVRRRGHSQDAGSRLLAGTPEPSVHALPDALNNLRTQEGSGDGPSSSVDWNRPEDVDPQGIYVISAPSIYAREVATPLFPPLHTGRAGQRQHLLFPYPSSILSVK
Description: Affinity determination by Surface Plasmon Resonance (SPR), biotinylated human DLL3 immobilized on streptavidin sensor chip. The settings on record: 25° C., Biacore, 1:1 binding model. As for the experimental part: Affinity Determination by Surface Plasmon Resonance (SPR). SPR studies were performed on the compounds disclosed herein using the following protocol.
The binding affinity and binding kinetic parameters at 25° C. were determined using Biacore S200 or biacore 8K instrument. Biotinylated target ligand human DLL3 was immobilized on a streptavidin sensor chip. A reference surface was set up for nonspecific binding and refractive index changes. For analysis of the kinetics of interactions, varying concentrations of samples were injected at a flow rate of 100 μL/min using running buffer containing 20 mM phosphate buffer with 2.7 mM KCl, 137 mM NaCl, 0.05% Surfactant P20 and 2% DMSO. Sensorgram curves were fitted with 1:1 binding model, and affinity and kinetic parameters were obtained using Biacore Insight evaluation 4.0. software.
(In SPR one partner is held on a chip, and binding of the other changes the refractive index at the surface.)
As for `CC[C@H](C)[C@H](NC(=O)[C@@H](NC(=O)[C@H](Cc1c[nH]c2ccccc12)NC(=O)CN1CCN(CC(=O)O)CCN(CC(=O)O)CCN(CC(=O)O)CC1)[C@@H](C)O)C(=O)N[C@H]1CSSC[C@@H](C(=O)N[C@@H](Cc2c[nH]c3ccccc23)C(=O)N2CCC[C@H]2C(N)=O)NC(=O)[C@H](CC(=O)O)NC(=O)[C@H](Cc2cnc[nH]2)NC(=O)[C@H](Cc2c[nH]c3ccccc23)NC(=O)[C@H](CC(N)=O)NC(=O)[C@H](CC(N)=O)NC1=O` [compound 17, DOTA-W-T-I-C(3)-N-N-W-H-D-C(3)-W-P-CONH2] ({DOTA}-WTICNNWHDCWP-NH2; disulfide 4-10), the Kd was 10 to 100 nM.
The figure for `CC[C@H](C)[C@H](NC(=O)[C@@H](NC(=O)[C@H](Cc1c[nH]c2ccccc12)NC(=O)C[C@H]1CC[C@H](NC(=O)CN2CCN(CC(=O)O)CCN(CC(=O)O)CCN(CC(=O)O)CC2)CC1)[C@@H](C)O)C(=O)N[C@H]1CSSC[C@@H](C(=O)N[C@@H](Cc2c[nH]c3ccccc23)C(=O)N2CCC[C@H]2C(N)=O)NC(=O)[C@H](CC(=O)O)NC(=O)[C@H](Cc2cnc[nH]2)NC(=O)[C@H](Cc2c[nH]c3ccccc23)NC(=O)[C@H](CC(N)=O)NC(=O)[C@H](CC(N)=O)NC1=O` [compound 19, DOTA-CyHex-W-T-I-C(3)-N-N-W-H-D-C(3)-W-P-CONH2] ({DOTA}-[X1]WTICNNWHDCWP-NH2; disulfide 5-11) is 10 to 100 nM; for `CC[C@H](C)[C@H](NC(=O)[C@@H](NC(=O)[C@H](Cc1c[nH]c2ccccc12)NC(=O)CCOCCOCCOCCOCCOCCOCCOCCOCCNC(=O)CN1CCN(CC(=O)O)CCN(CC(=O)O)CCN(CC(=O)O)CC1)[C@@H](C)O)C(=O)N[C@H]1CSSC[C@@H](C(=O)N[C@@H](Cc2c[nH]c3ccccc23)C(=O)N2CCC[C@H]2C(N)=O)NC(=O)[C@H](CC(=O)O)NC(=O)[C@H](Cc2cnc[nH]2)NC(=O)[C@H](Cc2c[nH]c3ccccc23)NC(=O)[C@H](CC(N)=O)NC(=O)[C@H](CC(N)=O)NC1=O` [compound 20, DOTA-PEG8-W-T-I-C(3)-N-N-W-H-D-C(3)-W-P-CONH2] ({DOTA-PEG8}-WTICNNWHDCWP-NH2; disulfide 4-10) it is 10 to 100 nM.
In the case of `CC[C@H](C)[C@H](NC(=O)[C@@H](NC(=O)[C@H](Cc1c[nH]c2ccccc12)NC(=O)CNC(=O)CNC(=O)CCC(=O)NCCCOCCOCCOCCCNC(=O)CN1CCN(CC(=O)O)CCN(CC(=O)O)CCN(CC(=O)O)CC1)[C@@H](C)O)C(=O)N[C@H]1CSSC[C@@H](C(=O)N[C@@H](Cc2c[nH]c3ccccc23)C(=O)N2CCC[C@H]2C(N)=O)NC(=O)[C@H](CC(=O)O)NC(=O)[C@H](Cc2c[nH]cn2)NC(=O)[C@H](Cc2c[nH]c3ccccc23)NC(=O)[C@H](CC(N)=O)NC(=O)[C@H](CC(N)=O)NC1=O` [compound 21] ({X2-Suc}-GGWTICNNWHDCWP-NH2; disulfide 6-12) it was 1 to 10 nM; in that of `CC[C@H](C)[C@H](NC(=O)[C@@H](NC(=O)[C@H](Cc1c[nH]c2ccccc12)NC(=O)CN(C)C(=O)CN(C)C(=O)CN(C)C(=O)CN(C)C(=O)CN(C)C(=O)CN1CCN(CC(=O)O)CCN(CC(=O)O)CCN(CC(=O)O)CC1)[C@@H](C)O)C(=O)N[C@H]1CSSC[C@@H](C(=O)N[C@@H](Cc2c[nH]c3ccccc23)C(=O)N2CCCC2C(N)=O)NC(=O)[C@H](CC(=O)O)NC(=O)[C@H](Cc2cnc[nH]2)NC(=O)[C@H](Cc2c[nH]c3ccccc23)NC(=O)[C@H](CC(N)=O)NC(=O)[C@H](CC(N)=O)NC1=O` (stereo partly drawn) [compound 22, DOTA-(Sar)5-W-T-I-C(3)-N-N-W-H-D-C(3)-W-P-CONH2] ({DOTA}-[Sar][Sar][Sar][Sar][Sar]WTICNNWHDCW[ξP]-NH2; disulfide 9-15), 1 to 10 nM.
As to `CC[C@H](C)C(NC(=O)[C@@H](NC(=O)[C@H](Cc1c[nH]c2ccccc12)NC(=O)CCCCCNC(=O)CN1CCN(CC(=O)O)CCN(CC(=O)O)CCN(CC(=O)O)CC1)[C@@H](C)O)C(=O)N[C@H]1CSSC[C@@H](C(=O)N[C@@H](Cc2cccc3ccccc23)C(=O)N2CCC[C@H]2C(N)=O)NC(=O)[C@H](CC(=O)O)NC(=O)[C@H](Cc2cnc[nH]2)NC(=O)[C@H](Cc2c[nH]c3ccccc23)NC(=O)[C@H](CC(N)=O)NC(=O)[C@H](CC(N)=O)NC1=O` (stereo partly drawn) [compound 54, DOTA-Ahx-W-T-I-C(3)-N-N-W-H-D-C(3)-(1Nal)-P-CONH2] ({DOTA-Ahx}-WT[ξIle]CNNWHDC[1Nal]P-NH2; disulfide 4-10), the Kd was in the range of 10 to 100 nM.
In the case of `CC[C@H](C)C(NC(=O)[C@@H](NC(=O)[C@H](Cc1c[nH]c2ccccc12)NC(=O)CCCCCNC(=O)CN1CCN(CC(=O)O)CCN(CC(=O)O)CCN(CC(=O)O)CC1)[C@@H](C)O)C(=O)N[C@H]1CSSC[C@@H](C(=O)N[C@@H](Cc2ccc3ccccc3c2)C(=O)N2CCC[C@H]2C(N)=O)NC(=O)[C@H](CC(=O)O)NC(=O)[C@H](Cc2cnc[nH]2)NC(=O)[C@H](Cc2c[nH]c3ccccc23)NC(=O)[C@H](CC(N)=O)NC(=O)[C@H](CC(N)=O)NC1=O` (stereo partly drawn) [compound 55, DOTA-Ahx-W-T-I-C(3)-N-N-W-H-D-C(3)-(2Nal)-P-CONH2] ({DOTA-Ahx}-WT[ξIle]CNNWHDC[2Nal]P-NH2; disulfide 4-10) it was 100 to 300 nM.
Regarding `CC[C@H](C)C(NC(=O)[C@@H](NC(=O)[C@H](Cc1c[nH]c2ccccc12)NC(=O)CCCCCNC(=O)CN1CCN(CC(=O)O)CCN(CC(=O)O)CCN(CC(=O)O)CC1)[C@@H](C)O)C(=O)N[C@H]1CSSC[C@@H](C(=O)N[C@@H](Cc2c[nH]c3ccccc23)C(=O)N2CCC[C@H]2C(N)=O)NC(=O)[C@H](CC(=O)O)NC(=O)[C@H](Cc2cnc[nH]2)NC(=O)[C@H](Cc2cccc3ccccc23)NC(=O)[C@H](CC(N)=O)NC(=O)[C@H](CC(N)=O)NC1=O` (stereo partly drawn) [compound 56, DOTA-Ahx-W-T-I-C(3)-N-N-(1Nal)-H-D-C(3)-W-P-CONH2] ({DOTA-Ahx}-WT[ξIle]CNN[1Nal]HDCWP-NH2; disulfide 4-10), the Kd is 10 to 100 nM.
In the case of `CC[C@H](C)C(NC(=O)[C@@H](NC(=O)[C@H](Cc1c[nH]c2ccccc12)NC(=O)CCCCCNC(=O)CN1CCN(CC(=O)O)CCN(CC(=O)O)CCN(CC(=O)O)CC1)[C@@H](C)O)C(=O)N[C@H]1CSSC[C@@H](C(=O)N[C@@H](Cc2c[nH]c3ccccc23)C(=O)N2CCC[C@H]2C(N)=O)NC(=O)[C@H](CC(=O)O)NC(=O)[C@H](Cc2cnc[nH]2)NC(=O)[C@H](Cc2ccc3ccccc3c2)NC(=O)[C@H](CC(N)=O)NC(=O)[C@H](CC(N)=O)NC1=O` (stereo partly drawn) [compound 57, DOTA-Ahx-W-T-I-C(3)-N-N-(2Nal)-H-D-C(3)-W-P-CONH2] ({DOTA-Ahx}-WT[ξIle]CNN[2Nal]HDCWP-NH2; disulfide 4-10) it was 1 to 10 nM.
Turning to `CC[C@H](C)[C@H](NC(=O)[C@@H](NC(=O)[C@H](Cc1c[nH]c2ccc(F)cc12)NC(=O)CCCCCNC(=O)CN1CCN(CC(=O)O)CCN(CC(=O)O)CCN(CC(=O)O)CC1)[C@@H](C)O)C(=O)N[C@H]1CSSC[C@@H](C(=O)N[C@@H](Cc2c[nH]c3ccccc23)C(=O)N2CCC[C@H]2C(N)=O)NC(=O)[C@H](CC(=O)O)NC(=O)[C@H](Cc2cnc[nH]2)NC(=O)[C@H](Cc2c[nH]c3ccccc23)NC(=O)[C@H](CC(N)=O)NC(=O)[C@H](CC(N)=O)NC1=O` [compound 58, DOTA-Ahx-(5Fluoro-W)-T-I-C(3)-N-N-W-H-D-C(3)-W-P-CONH2] ({DOTA-Ahx}-[Trp(5-F)]TICNNWHDCWP-NH2; disulfide 4-10), the Kd was 1 to 10 nM.
As to `CC[C@H](C)[C@H](NC(=O)[C@@H](NC(=O)[C@H](Cc1c[nH]c2ccccc12)NC(=O)CCCCCNC(=O)CN1CCN(CC(=O)O)CCN(CC(=O)O)CCN(CC(=O)O)CC1)[C@@H](C)O)C(=O)N[C@H]1CSSC[C@@H](C(=O)N[C@@H](Cc2c[nH]c3ccccc23)C(=O)N2CCC[C@H]2C(N)=O)NC(=O)[C@H](CC(=O)O)NC(=O)[C@H](Cc2cnc[nH]2)NC(=O)[C@H](Cc2c[nH]c3ccc(F)cc23)NC(=O)[C@H](CC(N)=O)NC(=O)[C@H](CC(N)=O)NC1=O` [compound 59, DOTA-Ahx-W-T-I-C(3)-N-N-(5Fluoro-W)-H-D-C(3)-W-P-CONH2] ({DOTA-Ahx}-WTICNN[Trp(5-F)]HDCWP-NH2; disulfide 4-10), the Kd fell in the range of 10 to 100 nM.
The figure for `CC[C@H](C)[C@H](NC(=O)[C@@H](NC(=O)[C@H](Cc1c[nH]c2ccccc12)NC(=O)CCCCCNC(=O)CN1CCN(CC(=O)O)CCN(CC(=O)O)CCN(CC(=O)O)CC1)[C@@H](C)O)C(=O)N[C@H]1CSSC[C@@H](C(=O)N[C@@H](Cc2c[nH]c3ccc(F)cc23)C(=O)N2CCC[C@H]2C(N)=O)NC(=O)[C@H](CC(=O)O)NC(=O)[C@H](Cc2cnc[nH]2)NC(=O)[C@H](Cc2c[nH]c3ccccc23)NC(=O)[C@H](CC(N)=O)NC(=O)[C@H](CC(N)=O)NC1=O` [compound 60, DOTA-Ahx-W-T-I-C(3)-N-N-W-H-D-C(3)-(5Fluoro-W)-P-CONH2] ({DOTA-Ahx}-WTICNNWHDC[Trp(5-F)]P-NH2; disulfide 4-10) is 10 to 100 nM.

For orientation: Kd means the concentration at which binding is half-saturated. A high value points to lower affinity.
